Data: patent US20080175872A1, “Controlled Release Dosage Form Containing Lercanidipine and a Performance-enhancing Acid” (OSMOTICA CORP., priority 2006, published 2008)
Several values for one entry are separate records, joined by “and”; a condition that tells them apart may be missing. Identical values can stand only once.

Tests used:
[1] = Stability of lercanidipine HCl polymorph II alone or 1/1 with organic acid, impurities by HPLC; format: physicochemical
Experimental: Analytical testing of the different samples was done by HPLC, column RP18, 300×3.9 mm ID, particle size 4 μm, in acetonitrile-0.15 M sodium perchlorate buffer, pH 3.0, at a flow rate of 1.3 ml/min, at 30° C., detector UV 240 nm. In all cases impurities were reported as % of the area of the impurity peak referred to the area of the main peak (a/a). The lercanidipine is the lercanidipine HCl polymorph II. […] The lercanidipine is the lercanidipine HCl polymorph II.

[2] = cited from earlier work
[3] = oral administration of an immediate release form; cited from earlier work
[4] = 50° C., 1.5 month, closed vials

**Q.** With `COC(=O)C1=C(C)NC(C)=C(C(=O)OC(C)(C)CN(C)CCC(c2ccccc2)c2ccccc2)C1c1cccc([N+](=O)[O-])c1` (centres unmarked) [Lercanidipine, methyl 1,1,N-trimethyl-N-(3,3-diphenylpropyl)-2-aminoethyl 1,4-dihydro-2,6-dimethyl-4-(3-nitrophenyl)pyridine-3,5-dicarboxylate] as the molecule, how does the “Impurity 3” value ([1]; 5° C. (reference condition)) read?
**A.** 0.18 % a/a and 0.27 % a/a

**Q.** And the “Impurity B” value ([1]; 5° C. (reference condition))?
**A.** 0.02 % a/a and 0.01 % a/a

**Q.** What about the Maximum unknown impurities ([1]; 5° C. (reference condition)) of the same molecule?
**A.** 0.04 % a/a

**Q.** What about the “Impurity 3” value ([1]; 50° C. + 75% RH) of the same molecule?
**A.** 0.28 % a/a and 0.16 % a/a

**Q.** What about the “Impurity B” value ([1]; 50° C. + 75% RH) of the same molecule?
**A.** 0.01 % a/a

**Q.** What about the Maximum unknown impurities ([1]; 50° C. + 75% RH) of the same molecule?
**A.** 0.05 % a/a and 0.04 % a/a

**Q.** What about the Total impurities ([1]; 50° C. + 75% RH) of the same molecule?
**A.** 0.43 % a/a and 0.34 % a/a

**Q.** What about the “Impurity 3” value [1, 4] of the same molecule?
**A.** 0.22 % a/a and 0.30 % a/a

**Q.** And the “Impurity B” value [1, 4]?
**A.** 0.01 % a/a

**Q.** And the Maximum unknown impurities [1, 4]?
**A.** 0.03 % a/a and 0.04 % a/a

**Q.** And the Total impurities [1, 4]?
**A.** 0.31 % a/a and 0.47 % a/a

**Q.** And the “permeability classification as defined by the FDA” value [2]?
**A.** low permeable drug

**Q.** What about the “solubility in gastrointestinal pH range” value ([2]; pH range of 1 to 8) of the same molecule?
**A.** essentially insoluble

**Q.** What about the “peak plasma level (Tmax)” value [3] of the same molecule?
**A.** 1 to 3 h
